# From patent US9394310B2, “Carbocycle-substituted purine and 7-deazapurine compounds” (Epizyme, Inc., priority 2010, dated 2016)
# Structures can show the parent of a compound that is named as a salt.
# Target: T1, DOT1L (1-416) (Homo sapiens, UniProt Q8TEK3)
# T1 construct: 40 μl per well of DOT1L (1-416) (0.25 nM final concentration in assay buffer)
# Assay: Determination of IC50: DOT1L (1-416) methyltransferase assay with 3H-SAM and oligonucleosome, Flashplate scintillation readout
# Assay type: biochemical
# Conditions: 0.25 nM DOT1L (1-416), 30 min preincubation, 120 min reaction at room temperature, oligonucleosome substrate
# Description: Compound was serially diluted 3 fold in DMSO for 10 points and 1 μl was plated in a 384 well microtiter plate. Positive control (100% inhibition standard) was 2.5 uM final concentration of S-adenosyl-L-homocysteine and negative control (0% inhibition standard) contained 1 μl of DMSO. Compound was then incubated for 30 minutes with 40 μl per well of DOT1L (1-416) (0.25 nM final concentration in assay buffer: 20 mM TRIS, pH 8.0, 10 mM NaCl, 0.002% Tween20, 0.005% Bovine Skin Gelatin, 100 mM KCl, and 0.5 mM DTT). 10 μl per well of substrate mix (same assay buffer with 200 nM S—[methyl-^3H]-adenosyl-L methionine, 600 nM of unlabeled […], and 20 nM oligonucleosome) was added to initiate the reaction. Reaction was incubated for 120 minutes at room temperature and quenched with 10 μl per well of 100 μM S-methyl-adenosyl-L methionine. For detection, substrate from 50 μl of reaction was immobilized on a 384 well Streptavidin coated Flashplate (Perkin Elmer) (also coated with 0.2% polyethyleneimine) and read on a Top Count scintillation counter (Perkin Elmer).
# T1 sequence (Q8TEK3 1-416): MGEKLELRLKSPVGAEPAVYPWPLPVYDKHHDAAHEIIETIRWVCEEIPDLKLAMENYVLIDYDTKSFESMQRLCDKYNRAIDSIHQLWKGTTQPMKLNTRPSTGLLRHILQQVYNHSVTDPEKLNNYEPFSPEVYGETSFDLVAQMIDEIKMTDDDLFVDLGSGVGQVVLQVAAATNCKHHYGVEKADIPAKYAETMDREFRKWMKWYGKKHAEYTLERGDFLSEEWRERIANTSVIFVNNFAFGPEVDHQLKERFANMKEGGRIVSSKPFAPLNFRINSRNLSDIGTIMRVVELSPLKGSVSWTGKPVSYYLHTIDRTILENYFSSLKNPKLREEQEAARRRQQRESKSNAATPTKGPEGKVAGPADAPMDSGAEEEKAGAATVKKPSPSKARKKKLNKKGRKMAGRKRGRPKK
row,Compound,IC50
1,"CC(C)N(CCCCc1nc2cc(C(C)(C)C)ccc2[nH]1)C[C@@H]1C[C@@H](n2ccc3c(N)ncnc32)[C@H](O)[C@@H]1O [Compound 2, (1R,2S,3R,5S)-3-(4-amino-7H-pyrrolo[2,3-d]pyrimidin-7-yl)-5-(((4-(5-tert-butyl-1H-benzo[d]imidazol-2-yl)butyl)(isopropyl)amino)methyl)-cyclopentane-1,2-diol]",< 100 nM
2,"CC(C)N(CCCCc1nc2cc(C(C)(C)C)ccc2[nH]1)C[C@H]1C[C@@H](n2ccc3c(N)ncnc32)[C@H](O)[C@@H]1O [Compound 1, (1R,2S,3R,5R)-3-(4-amino-7H-pyrrolo[2,3-d]pyrimidin-7-yl)-5-(((4-(5-tert-butyl-1H-benzo[d]imidazol-2-yl)butyl)(isopropyl)amino)methyl)-cyclopentane-1,2-diol]",< 100 nM
3,"CN(CCCCc1nc2ccc(C(F)(F)F)cc2[nH]1)C[C@H]1C[C@@H](n2ccc3c(NC4CC4)ncnc32)[C@H](O)[C@@H]1O [Compound 7, (1R,2S,3R,5R)-3-(4-(cyclopropylamino)-7H-pyrrolo[2,3-d]pyrimidin-7-yl)-5-((methyl(4-(6-(trifluoromethyl)-1H-benzo[d]imidazol-2-yl)butyl)amino)methyl)-cyclopentane-1,2-diol]",< 100 nM
4,"CC(C)N(CCCCc1nc2cc(C(F)(F)F)c(Cl)cc2[nH]1)C[C@H]1C[C@@H](n2ccc3c(NC4CC4)ncnc32)[C@H](O)[C@@H]1O [Compound 4, (1S,2R,3R,5R)-3-(((4-(6-chloro-5-(trifluoromethyl)-1H-benzo[d]imidazol-2-yl)butyl)(isopropyl)amino)methyl)-5-(4-(cyclopropylamino)-7H-pyrrolo[2,3-d]pyrimidin-7-yl)cyclopentane-1,2-diol]",< 100 nM
5,"CC(C)N(CCCCc1nc2ccc(C(F)(F)F)cc2[nH]1)C[C@H]1C[C@@H](n2ccc3c(NC4CC4)ncnc32)[C@H](O)[C@@H]1O [Compound 6, (1R,2S,3R,5R)-3-(4-(cyclopropylamino)-7H-pyrrolo[2,3-d]pyrimidin-7-yl)-5-((isopropyl-(4-(6-(trifluoromethyl)-1H-benzo[d]imidazol-2-yl)butyl)amino)methyl)-cyclopentane-1,2-diol]",< 100 nM
6,"CN(CCCCc1nc2cc(Cl)c(Cl)cc2[nH]1)C[C@H]1C[C@@H](n2ccc3c(NC4CC4)ncnc32)[C@H](O)[C@@H]1O [Compound 8, (1R,2S,3R,5R)-3-(4-(cyclopropylamino)-7H-pyrrolo[2,3-d]pyrimidin-7-yl)-5-(((4-(5,6-dichloro-1H-benzo[d]imidazol-2-yl)butyl)(methyl)amino)methyl)-cyclopentane-1,2-diol]",< 100 nM
7,"CN(CCCCc1nc2cc(C(F)(F)F)c(Cl)cc2[nH]1)C[C@H]1C[C@@H](n2ccc3c(NC4CC4)ncnc32)[C@H](O)[C@@H]1O [Compound 5, (1S,2R,3R,5R)-3-(((4-(6-chloro-5-(trifluoromethyl)-1H-benzo[d]imidazol-2-yl)butyl)(methyl)amino)methyl)-5-(4-(cyclopropylamino)-7H-pyrrolo[2,3-d]pyrimidin-7-yl)cyclopentane-1,2-diol]",< 100 nM
8,"CN(CCCNC(=O)Nc1ccc(C(C)(C)C)cc1)C[C@@H]1C[C@@H](n2cnc3c(N)ncnc32)[C@H](O)[C@@H]1O [Compound 3, 1-(3-((((1S,2R,3S,4R)-4-(6-amino-9H-purin-9-yl)-2,3-dihydroxycyclopentyl)methyl)-(methyl)amino)propyl)-3-(4-(tert-butyl)phenyl)urea]",< 1000 nM

# The next lines start with the values.
row,IC50,Compound
1,< 10000 nM,"CS(=O)(=O)N(CCCCc1nc2cc(Cl)c(Cl)cc2[nH]1)C[C@H]1C[C@@H](n2ccc3c(NC4CC4)ncnc32)[C@H](O)[C@@H]1O [Compound 16, N-(((1R,2R,3S,4R)-4-(4-(cyclopropylamino)-7H-pyrrolo-[2,3-d]pyrimidin-7-yl)-2,3-dihydroxycyclopentyl)methyl)-N-(4-(5,6-dichloro-1H-benzo[d]imidazol-2-yl)butyl)methanesulfonamide]"
2,< 1000 nM,"CS(=O)(=O)N(CCCCc1nc2cc(C(F)(F)F)c(Cl)cc2[nH]1)C[C@H]1C[C@@H](n2ccc3c(N)ncnc32)[C@H](O)[C@@H]1O [Compound 15, N-(((1R,2R,3S,4R)-4-(4-amino-7H-pyrrolo[2,3-d]pyrimidin-7-yl)-2,3-dihydroxycyclopentyl)methyl)-N-(4-(6-chloro-5-(trifluoromethyl)-1H-benzo[d]imidazol-2-yl)butyl)methanesulfonamide]"
3,< 1000 nM,"CC(C)(C)c1ccc2[nH]c(CCCCN(C[C@H]3C[C@@H](n4ccc5c(NC6CC6)ncnc54)[C@H](O)[C@@H]3O)S(C)(=O)=O)nc2c1 [Compound 11, N-(4-(5-(tert-butyl)-1H-benzo[d]imidazol-2-yl)butyl)-N-(((1R,2R,3S,4R)-4-(4-(cyclopropylamino)-7H-pyrrolo[2,3-d]pyrimidin-7-yl)-2,3-dihydroxycyclopentyl)methyl)-methanesulfonamide]"
4,< 100 nM,"CN(CCCCc1nc2cc(C(F)(F)F)c(Cl)cc2[nH]1)C[C@H]1C[C@@H](n2ccc3c(N)ncnc32)[C@H](O)[C@@H]1O [Compound 13, (1R,2S,3R,5R)-3-(4-amino-7H-pyrrolo[2,3-d]pyrimidin-7-yl)-5-(((4-(6-chloro-5-(trifluoromethyl)-1H-benzo[d]imidazol-2-yl)butyl)(methyl)amino)methyl)-cyclopentane-1,2-diol]"
5,< 100 nM,"CN(CCCNC(=O)Nc1ccc(C(C)(C)C)cc1)C[C@H]1C[C@@H](n2cnc3c(N)ncnc32)[C@H](O)[C@@H]1O [Compound 10, 1-(3-((((1R,2R,3S,4R)-4-(6-amino-9H-purin-9-yl)-2,3-dihydroxycyclopentyl)methyl)(meth-yl)amino)propyl)-3-(4-(tert-butyl)phenyl)urea]"
6,< 1000 nM,"CS(=O)(=O)N(CCCCc1nc2cc(C(F)(F)F)c(Cl)cc2[nH]1)C[C@H]1C[C@@H](n2ccc3c(NC4CC4)ncnc32)[C@H](O)[C@@H]1O [Compound 12, N-(4-(6-chloro-5-(trifluoromethyl)-1H-benzo[d]imidazol-2-yl)butyl)-N-(((1R,2R,3S,4R)-4-(4-(cyclopropylamino)-7H-pyrrolo[2,3-d]pyrimidin-7-yl)-2,3-dihydroxycyclopentyl)methyl)-methanesulfonamide]"
7,< 100 nM,"CC(C)N(CCCCc1nc2cc(C(F)(F)F)c(Cl)cc2[nH]1)C[C@H]1C[C@@H](n2ccc3c(N)ncnc32)[C@H](O)[C@@H]1O [Compound 14, (1R,2S,3R,5R)-3-(4-amino-7H-pyrrolo[2,3-d]pyrimidin-7-yl)-5-(((4-(6-chloro-5-(trifluoromethyl)-1H-benzo[d]imidazol-2-yl)butyl)(isopropyl)amino)methyl)-cyclopentane-1,2-diol]"
8,< 10000 nM,"CS(=O)(=O)N(CCCCc1nc2cc(C(F)(F)F)ccc2[nH]1)C[C@H]1C[C@@H](n2ccc3c(NC4CC4)ncnc32)[C@H](O)[C@@H]1O [Compound 17, N-(((1R,2R,3S,4R)-4-(4-(cyclopropylamino)-7H-pyrrolo-[2,3-d]pyrimidin-7-yl)-2,3-dihydroxycyclopentyl)methyl)-N-(4-(5-(trifluoromethyl)-1H-benzo[d]imidazol-2-yl)butyl)methanesulfonamide]"
9,< 100 nM,"CC(C)N(CCCCc1nc2cc(Cl)c(Cl)cc2[nH]1)C[C@H]1C[C@@H](n2ccc3c(NC4CC4)ncnc32)[C@H](O)[C@@H]1O [Compound 9, (1R,2S,3R,5R)-3-(4-(cyclopropylamino)-7H-pyrrolo[2,3-d]pyrimidin-7-yl)-5-(((4-(5,6-dichloro-1H-benzo[d]imidazol-2-yl)butyl)(isopropyl)amino)methyl)-cyclopentane-1,2-diol trihydrochloride]"
